Experimental data: paper PMC3914206

What was measured:
ERK5 [1] = target: T1, ERK5 (Homo sapiens, UniProt Q13164); assay: ERK5 autophosphorylation assay (EGF-stimulated, mobility shift immunoblot); assay type: cell-based; set-up: endogenous in cells; host or cells: HeLa; settings: inhibition of EGF-stimulated autophosphorylation of ERK5 in HeLa cells; read-out: Cellular EC50 (ERK5)
Source text: Proteins from total cell lysates were resolved by 6% sodium dodecyl sulfate (SDS)-poly-acrylamide gel electrophoresis (PAGE), transferred to nitrocellulose membrane, blocked in 5% nonfat milk, and blotted with anti-ERK5 antibody.

ERK5 [2] = target: T1, ERK5; assay: ERK5 kinase activity in vitro assay (32P-ATP, PIMtide substrate); assay type: biochemical; set-up: hexahistidine (His6) (N); made in house; host or cells: Spodoptera frugiperda 21 cells (baculovirus, Bac-to-Bac); settings: for IC50: in vitro assay, recombinant active ERK5, read-out: Enzymatic IC50 (ERK5)
Description: pFastBAC vector encoding N-terminal hexahistidine-tagged human ERK5 and HA-tagged human MEK5-DD (constitutively active) were used to generate recombinant baculovirus using the Bac-to-Bac system (Invitrogen). […] His-tagged ERK5 was purified as described for His-tagged BRSK1[33], using 5 mL Ni-NTA-agarose resin (Qiagen) followed by gel filtration chromatography on Superdex 200HR column on an AKTA system (GE Healthcare).
Assays were carried out for 20 min at 30 °C, terminated by applying the reaction mixture onto p81 paper and the incorporated radioactivity measured as described previously.

T1 sequence (Q13164 whole entry): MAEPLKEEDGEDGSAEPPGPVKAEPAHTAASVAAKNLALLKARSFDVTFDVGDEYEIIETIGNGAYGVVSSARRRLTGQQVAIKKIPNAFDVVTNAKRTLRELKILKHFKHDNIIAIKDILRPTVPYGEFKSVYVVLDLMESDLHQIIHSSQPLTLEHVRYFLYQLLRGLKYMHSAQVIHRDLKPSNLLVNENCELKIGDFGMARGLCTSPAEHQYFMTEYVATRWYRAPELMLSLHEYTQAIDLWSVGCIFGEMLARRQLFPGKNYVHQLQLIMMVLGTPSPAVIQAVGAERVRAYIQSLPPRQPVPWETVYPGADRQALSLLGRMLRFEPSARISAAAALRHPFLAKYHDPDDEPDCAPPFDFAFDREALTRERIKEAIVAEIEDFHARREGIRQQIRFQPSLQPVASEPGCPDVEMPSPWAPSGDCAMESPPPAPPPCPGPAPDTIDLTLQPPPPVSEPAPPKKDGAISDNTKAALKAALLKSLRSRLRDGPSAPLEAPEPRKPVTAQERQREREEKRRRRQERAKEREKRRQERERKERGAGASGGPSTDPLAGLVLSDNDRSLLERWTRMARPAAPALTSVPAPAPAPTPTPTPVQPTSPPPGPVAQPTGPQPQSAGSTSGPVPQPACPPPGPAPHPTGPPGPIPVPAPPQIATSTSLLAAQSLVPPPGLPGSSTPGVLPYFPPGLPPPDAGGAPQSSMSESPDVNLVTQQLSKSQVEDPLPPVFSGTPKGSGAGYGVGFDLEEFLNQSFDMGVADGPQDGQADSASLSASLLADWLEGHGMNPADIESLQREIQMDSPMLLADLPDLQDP

Structure (SMILES): COc1cc(N2CCC(O)CC2)ccc1Nc1ncc2c(n1)N(C)c1ccccc1C(=O)N2C [Compound 6]
- EC50 (ERK5 [1]): 0.24 ± 0.04 µM
- IC50 (ERK5 [2]): 0.297 ± 0.014 µM

Structure (SMILES): COc1cc(N2CCOCC2)ccc1Nc1ncc2c(n1)N(C)c1ccccc1C(=O)N2C [Compound 7]
- EC50 (ERK5 [1]): 0.26 ± 0.03 µM
- IC50 (ERK5 [2]): 0.233 ± 0.019 µM

Structure (SMILES): CN1C(=O)c2ccccc2N(C)c2nc(Nc3ccc(S(N)(=O)=O)cc3)ncc21 [Compound 8]
- EC50 (ERK5 [1]): 0.31 ± 0.06 µM
- IC50 (ERK5 [2]): 0.171 ± 0.016 µM

Structure (SMILES): CN1C(=O)c2ccccc2N(C)c2nc(NCCc3cnc[nH]3)ncc21 [Compound 9]
- EC50 (ERK5 [1]): 4.68 ± 0.52 µM
- IC50 (ERK5 [2]): 1.72 ± 0.221 µM

Structure (SMILES): CN1CCC(Nc2ncc3c(n2)N(C)c2ccccc2C(=O)N3C)CC1 [Compound 10]
- EC50 (ERK5 [1]): 4.11 ± 0.59 µM
- IC50 (ERK5 [2]): 1.25 ± 0.151 µM

Structure (SMILES): CC(C)Oc1cc(N2CCC(O)CC2)ccc1Nc1ncc2c(n1)N(C)c1ccccc1C(=O)N2C [Compound 12]
- EC50 (ERK5 [1]): > 0.5 µM
- IC50 (ERK5 [2]): 1.53 ± 0.172 µM

Structure (SMILES): COc1cc(NCCN(C)C)ccc1Nc1ncc2c(n1)N(C)c1ccccc1C(=O)N2C [Compound 13]
- EC50 (ERK5 [1]): 0.24 ± 0.03 µM
- IC50 (ERK5 [2]): 0.14 ± 0.009 µM

Structure (SMILES): COc1cc(C(=O)NC2CCN(C)CC2)ccc1Nc1ncc2c(n1)N(C)c1ccccc1C(=O)N2C [Compound 14]
- EC50 (ERK5 [1]): 0.32 ± 0.05 µM
- IC50 (ERK5 [2]): 0.338 ± 0.018 µM

Structure (SMILES): COc1cc(N2CCN(C)CC2)ccc1Nc1ncc2c(n1)N(C)c1ccccc1C(=O)N2 [Compound 16]
- EC50 (ERK5 [1]): > 1 µM
- IC50 (ERK5 [2]): 1.45 ± 0.21 µM
- fold decrease in activity for ERK5 (ERK5 [2]; relative to compound 5): 4 fold

Structure (SMILES): CCN1c2ccccc2C(=O)N(C)c2cnc(Nc3ccc(N4CCN(C)CC4)cc3OC)nc21 [Compound 17]
- EC50 (ERK5 [1]): 0.2 ± 0.04 µM
- IC50 (ERK5 [2]): 0.066 ± 0.007 µM

Structure (SMILES): COc1cc(N2CCN(C)CC2)ccc1Nc1ncc2c(n1)N(C(C)C)c1ccccc1C(=O)N2C [Compound 18]
- EC50 (ERK5 [1]): 0.23 ± 0.03 µM
- IC50 (ERK5 [2]): 0.098 ± 0.012 µM

Structure (SMILES): COc1cc(N2CCN(C)CC2)ccc1Nc1ncc2c(n1)N(C1CCCC1)c1ccccc1C(=O)N2C [Compound 19]
- EC50 (ERK5 [1]): 0.2 ± 0.04 µM
- IC50 (ERK5 [2]): 0.146 ± 0.018 µM

Structure (SMILES): COc1cc(N2CCN(C)CC2)ccc1Nc1ncc2c(n1)N(C)c1ccc(F)cc1C(=O)N2C [Compound 20]
- EC50 (ERK5 [1]): 1.32 ± 0.22 µM
- IC50 (ERK5 [2]): 0.873 ± 0.06 µM

Structure (SMILES): COc1cc(N2CCN(C)CC2)ccc1Nc1ncc2c(n1)N(C)c1cc(Cl)ccc1C(=O)N2C [Compound 21]
- EC50 (ERK5 [1]): 1.24 ± 0.24 µM
- IC50 (ERK5 [2]): 1.13 ± 0.16 µM

Structure (SMILES): COc1cc(N2CCN(C)CC2)ccc1Nc1ncc2c(n1)N(C)c1ccc(Cl)cc1C(=O)N2C [Compound 22]
- EC50 (ERK5 [1]): 11.4 ± 2.04 µM
- IC50 (ERK5 [2]): 5.09 ± 0.052 µM

Structure (SMILES): COc1cc(N2CCN(C)CC2)ccc1Nc1ncc2c(n1)N(C)c1cc(C)ccc1C(=O)N2C [Compound 23]
- EC50 (ERK5 [1]): 3.1 ± 0.62 µM
- IC50 (ERK5 [2]): 2.46 ± 0.26 µM
